Experimental data taken from patent publication EP2874643B1, “OSTEOPROTEGERIN DERIVED COMPOSITION AND USE THEREOF” (R-Pharm International, LLC, priority 2012, dated 2013).
Marks after values point to notes of the source that are not given here.

Experiments:
[1] = test system: MDA-MB-468 human breast cancer cells; assay: murine bone lytic model of human breast cancer (intratibial inoculation); conditions: 0.1 mg/kg, i.v.; for Mean X-Ray Score of Bone Lysis in Inoculated Tibiae: scale 0 (no lysis) to 4, enlarged muscle + 0.5
[2] = test system: MDA-MB-468 human breast cancer cells; conditions: mouse, in vivo
[3] = molecular target: RANKL (receptor activator of NF-kappaB ligand); assay: cell-based or functional assay
[4] = MicroCT scan of inoculated tibia at termination, mean

concentration that completely blocks RANKL-induced osteoclast differentiation (RAW264.7 cells) [3]	inhibition of RANKL-induced osteoclast differentiation (RAW264.7 cells), EC50 [3]	Compound	Survival (Number Alive/Total) ([1]; 3 times weekly for 6 weeks, end of study)	Mean X-Ray Score of Bone Lysis in Inoculated Tibiae ([1]; 6 weeks Post-Inoculation)	Mean X-Ray Score of Bone Lysis in Inoculated Tibiae ([1]; 8 weeks Post-Inoculation)	Structure Model Index (SMI) [1, 4]	Total Bone Volume (TBV) [1, 4]	Trabecular Bone Volume 3 (Tb.BV) [1, 4]	Trabecular Pattern Factor (Tb.Pf) [1, 4]	adverse clinical signs [2]
–	–	O=P(O)(O)C(O)(Cn1ccnc1)P(=O)(O)O [Zometa, Zoledronic Acid]	12/12	0.2 ^a	0.5 ^a	1.831 ^a	6.799 ^a mm^3	0.614 ^a mm^3	10.458 ^a mm^--1	No adverse clinical signs were observed
100 ng/mL	0.05 µg/mL	hOPG-hIgG1-Fc polypeptide of SEQ ID NO. 1 (Fc fusion)	–	–	–	–	–	–	–	–
